{"source": "ChEMBL document CHEMBL2021794", "about": "“Synthesis, σ₁, σ₂-receptors binding affinity and antiproliferative action of new C1-substituted adamantanes” (Bioorg Med Chem, 2012)", "assay_type_in_all_cases": "functional", "key": {"IGROV-1": {"test_system": "IGROV-1", "test": "Cell cycle arrest in human IGROV1 cells assessed as accumulation at G2 phase at 5 uM after 24 hrs by propidium iodide staining based flow cytometry (reference value: 19%)"}, "PC-3 [1]": {"test_system": "PC-3", "test": "Cell cycle arrest in human PC3 cells assessed as accumulation at S phase at 0.5 uM after 24 hrs by propidium iodide staining based flow cytometry (reference value: 42%)"}, "BXPC-3": {"test_system": "BXPC-3", "test": "Cell cycle arrest in human BxPC3 cells assessed as accumulation at S phase at 15 uM after 24 hrs by propidium iodide staining based flow cytometry (reference value: 33%)"}, "PC-3 [2]": {"test_system": "PC-3", "test": "Induction of apoptosis in human PC3 cells assessed as healthy cells at 15 uM after 24 hrs by Annexin V/7-AAD staining based flow cytometry (reference value: 92%)"}}, "data": [{"smiles": "CN1CCN(c2ccc(C(c3ccccc3)C34CC5CC(CC(C5)C3)C4)cc2)CC1", "note": "(centres undefined)", "values": [{"measurement": "Activity", "setting": "IGROV-1", "result": 19, "unit": "%"}, {"measurement": "Activity", "setting": "PC-3 [1]", "result": 40, "unit": "%"}, {"measurement": "Activity", "setting": "BXPC-3", "result": 19, "unit": "%"}, {"measurement": "Activity", "setting": "PC-3 [2]", "result": 89, "unit": "%"}]}]}
